Data published in ChEMBL document CHEMBL1125530, “1,4-Dihydropyridines as antagonists of platelet activating factor. 1. Synthesis and structure-activity relationships of 2-(4-heterocyclyl)phenyl derivatives” (J Med Chem, 1992).

The compounds below were run against Platelet-activating factor receptor (Mus musculus) (UniProt Q62035) (assay: Ability to protect mice from lethal effects of an injection of PAF in vivo.). Settings: Mus sp.
Sequence of Platelet-activating factor receptor (Mus musculus) (Q62035 whole entry): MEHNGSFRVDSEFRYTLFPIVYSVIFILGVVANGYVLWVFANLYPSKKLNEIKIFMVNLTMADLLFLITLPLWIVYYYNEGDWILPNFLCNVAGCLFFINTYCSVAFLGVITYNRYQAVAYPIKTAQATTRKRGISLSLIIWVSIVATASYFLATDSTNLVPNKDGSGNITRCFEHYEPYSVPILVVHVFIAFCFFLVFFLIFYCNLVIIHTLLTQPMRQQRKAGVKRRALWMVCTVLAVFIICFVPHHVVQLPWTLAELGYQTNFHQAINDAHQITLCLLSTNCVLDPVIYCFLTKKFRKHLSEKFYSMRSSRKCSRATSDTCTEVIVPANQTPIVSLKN
Assay type: functional, organism-based
`CCOC(=O)C1=C(c2ccc(-n3c(C)nc4cnccc43)cc2)NC(C)=C(C(=O)Nc2ccccn2)C1c1ccccc1Cl` (stereo not given) showed an ED50 of 0.26 mg/kg. For `CCOC(=O)C1=C(c2ccc(-n3c(C)nc4cnccc43)cc2)NC(C)=C(C(=O)NC(C)(C)C)C1c1ccccc1Cl` (stereo not given), the ED50 was 2.1 mg/kg. `CCOC(=O)C1=C(c2ccc(-c3cccnc3C)cc2)NC(C)=C(C(=O)Nc2ccccn2)C1c1ccccc1Cl` (stereo not given) was tested, and the ED50 was 3.7 mg/kg. In the case of `CCOC(=O)C1=C(c2ccc(-n3c(C)nc4cnccc43)cc2)NC(C)=C(C(=O)Nc2ccccn2)C1c1cccnc1` (stereo not given), the ED50 is reported as 16 mg/kg. With `CCOC(=O)C1=C(c2ccc(-n3c(C)nc4cnccc43)cc2)NC(C)=C(C(=O)Nc2ccccn2)C1c1ccccn1` (stereo not given) the ED50 was 4.1 mg/kg. `CCOC(=O)C1=C(c2ccc(-n3c(C)nc4cnccc43)cc2)N=C(C)/C(=C(/O)OC(C)(C)C)C1c1ccccc1Cl` (stereo not given) showed an ED50 of 2 mg/kg. Compound `CCOC(=O)C1=C(c2ccc(-n3c(C)nc4cnccc43)cc2)NC(C)=C(C(=O)Nc2ccccn2)C1c1ccccc1OC(F)(F)F` (stereo not given) has an ED50 of 0.2 mg/kg. Work on `CCOC(=O)C1=C(c2ccc(-n3c(C)nc4cnccc43)cc2)NC(C)=C(C(=O)Nc2ccccn2)C1c1ccc(C#N)cc1` (stereo not given) yielded an ED50 of 1.2 mg/kg. In the case of `CCOC(=O)C1=C(c2ccc(-n3c(C)nc4cnccc43)cc2)NC(C)=C(C(N)=O)C1c1ccccc1Cl` (stereo not given), the ED50 is reported as 1 mg/kg. `CCOC(=O)C1=C(c2ccc(-c3sc(C)nc3C)cc2)NC(C)=C(C(=O)Nc2ccccn2)C1c1ccccc1Cl` (stereo not given) showed an ED50 of 7.4 mg/kg. `CCOC(=O)C1=C(c2ccc(-n3c(C)nc4cnccc43)cc2)N=C(C)/C(=C(/O)OC2CCCCC2)C1c1ccccc1Cl` (stereo not given) was tested, and the ED50 was 4.7 mg/kg. Compound `CCOC(=O)C1=C(c2ccc(-n3ccnc3C)cc2)NC(C)=C(C(=O)Nc2ccccn2)C1c1ccccc1Cl` (stereo not given) has an ED50 of 22 mg/kg. Work on `Cc1nnc2n1-c1sc(CCC(=O)N3CCOCC3)cc1C(c1ccccc1Cl)=NC2` yielded an ED50 of 2.03 mg/kg. `CCOC(=O)C1=C(c2ccc(-n3c(C)nc4ccncc43)cc2)NC(C)=C(C(=O)Nc2ccccn2)C1c1ccccc1Cl` (stereo not given) showed an ED50 of 16 mg/kg. `CCOC(=O)C1=C(c2ccc(-n3c(C)nc4cnccc43)cc2)NC(C)=C(C(=O)O)C1c1ccccc1Cl` (stereo not given) gave an ED50 of 4.7 mg/kg. `CCOC(=O)C1=C(c2ccc(-n3c(C)nc4cnccc43)cc2)N=C(C)/C(=C(/O)OCCOC)C1c1ccccc1Cl` (stereo not given) showed an ED50 of 0.16 mg/kg. `CCOC(=O)C1=C(c2ccc(-n3c(C)nc4cnccc43)cc2)NC(C)=C(C(=O)Nc2ccccn2)C1c1cccnc1Cl` (stereo not given) showed an ED50 of 13 mg/kg. `CCOC(=O)C1=C(c2ccc(-c3c(C)nc4ccccn34)cc2)NC(C)=C(C(=O)Nc2ccccn2)C1c1ccccc1Cl` (stereo not given) showed an ED50 of 92 mg/kg. In the case of `CCOC(=O)C1=C(c2ccc(-n3c(C)nc(C)c3C)cc2)NC(C)=C(C(=O)Nc2ccccn2)C1c1ccccc1Cl` (stereo not given), the ED50 is reported as 10.5 mg/kg. For `CCOC(=O)C1=C(c2ccc(-n3cc(C)nc3C)cc2)NC(C)=C(C(=O)Nc2ccccn2)C1c1ccccc1Cl` (stereo not given), the ED50 was 3 mg/kg. In the case of `CCOC(=O)C1=C(c2ccc(-n3c(CC)nc4cnccc43)cc2)NC(C)=C(C(=O)Nc2ccccn2)C1c1ccccc1Cl` (stereo not given), the ED50 is reported as 10.5 mg/kg. For `CCOC(=O)C1=C(c2ccc(-n3c(C(F)(F)F)nc4cnccc43)cc2)NC(C)=C(C(=O)Nc2ccccn2)C1c1ccccc1Cl` (stereo not given), the ED50 was 25 mg/kg. Compound `CCOC(=O)C1=C(c2ccc(-n3c(C)nnc3C)cc2)NC(C)=C(C(=O)Nc2ccccn2)C1c1ccccc1Cl` (stereo not given) has an ED50 of 34 mg/kg. Work on `CCOC(=O)C1=C(c2ccc(-n3c(C)nc4cnccc43)cc2)N=C(C)/C(=C(/O)OCc2ccccc2)C1c1ccccc1Cl` (stereo not given) yielded an ED50 of 2 mg/kg. `CCOC(=O)C1=C(c2ccc(-c3c(C)nc4sccn34)cc2)NC(C)=C(C(=O)Nc2ccccn2)C1c1ccccc1Cl` (stereo not given) showed an ED50 of 5.4 mg/kg. In the case of `CCOC(=O)C1=C(c2ccc(-n3c(C)nc4cnccc43)cc2)NC(C)=C(C(=O)Nc2ccccn2)C1c1cccc2c1OCO2` (stereo not given), the ED50 is reported as 0.5 mg/kg. Work on `CCOC(=O)C1=C(c2ccc(-n3c(C)nc4cnccc43)cc2)NC(C)=C(C(=O)Nc2ccccn2)C1c1csc2ccccc12` (stereo not given) yielded an ED50 of 0.6 mg/kg. Compound `CCOC(=O)C1=C(c2ccc(-n3c(C)nc4c(C)nc(C)cc43)cc2)NC(C)=C(C(=O)Nc2ccccn2)C1c1ccccc1Cl` (stereo not given) has an ED50 of 0.3 mg/kg. With `CCOC(=O)C1=C(c2ccc(-n3c(C)nc4cnccc43)cc2)N=C(C)/C(=C(/O)OC)C1c1ccccc1Cl` (stereo not given) the ED50 was 1.5 mg/kg. In the case of `CCOC(=O)C1=C(c2ccc(-n3c(C)nc4cccnc43)cc2)NC(C)=C(C(=O)Nc2ccccn2)C1c1ccccc1Cl` (stereo not given), the ED50 is reported as 23 mg/kg.
